Measured values published in US10167262B2, “Herbicidal substituted 3-arylpyrazoles” (FMC CORPORATION, priority 2014, dated 2019).

Assays:
Assay type in all cases: in vivo
[1] = test system: large (Lg) crabgrass (Digitaria sanguinalis); test: Test E pre-/postemergence greenhouse test, plant response rating 0-100; details: Preemergence, scale 0 to 100
[2] = test system: morningglory (Ipomoea coccinea); test: as above; details: Preemergence, scale 0 to 100
[3] = test system: green foxtail (Setaria viridis); test: as above; details: Preemergence, scale 0 to 100
[4] = test system: goosegrass (Eleusine indica); test: as above; details: Preemergence, scale 0 to 100
[5] = test system: yellow nutsedge (Cyperus esculentus); test: as above; details: Preemergence, scale 0 to 100
[6] = test system: fall panicum (Panicum dichotomiflorum); test: as above; details: scale 0 to 100; for Plant response rating, Panicum, Fall: Postemergence; for Panicum, Fall plant response rating: Preemergence
How it was run: (§1)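 Each species was tested both preemergence, with chemicals sprayed onto freshly planted silt loam, and postemergence, on plants 2 to 18 cm tall in a peat-based medium; the vehicle was a non-phytotoxic solvent mixture with surfactant. After 14 to 21 days in the greenhouse, growth was visually compared with controls and scored 0–100.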

[7] = test system: ragweed (common ragweed, Ambrosia elatior); test: as above; details: Preemergence, scale 0 to 100
How it was run: as §1

[8] = test system: velvetleaf (Abutilon theophrasti); test: as above; details: Preemergence, scale 0 to 100
How it was run: as §1

[9] = test system: surinam grass (Brachiaria decumbens); test: as above; details: Preemergence, scale 0 to 100
How it was run: as §1

[10] = test system: field bindweed (Convolvulus arvensis); test: as above; details: scale 0 to 100; for Plant response rating, Field Bindweed: Postemergence; for Field Bindweed plant response rating: Preemergence
How it was run: as §1

[11] = test system: lambsquarters (Chenopodium album); test: as above; details: Preemergence, scale 0 to 100
How it was run: as §1

kochia (Kochia scoparia) = test: as above; details: Preemergence, scale 0 to 100
How it was run: as §1

[12] = test system: nightshade (eastern black nightshade, Solanum ptycanthum); test: as above; details: Preemergence, scale 0 to 100
How it was run: as §1

[13] = test system: giant foxtail (Setaria faberii); test: as above; details: Preemergence, scale 0 to 100
[14] = test system: waterhemp_RES1, (ALS & Triazine resistant common waterhemp, Amaranthus rudis); test: Test E postemergence greenhouse test, plant response rating 0-100; details: scale 0 to 100
How it was run: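 Visual ratings, 0 (no effect) to 100 (complete control), made versus controls 14–21 days after postemergence application in the greenhouse. Plants were at 1- to 4-leaf stage (2–18 cm) in peat moss/vermiculite potting medium.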

[15] = test system: johnsongrass (Sorghum halepense); test: Test E pre-/postemergence greenhouse test, plant response rating 0-100; details: Preemergence, scale 0 to 100

O=Cn1cc(C(=O)c2ccccc2)c(-c2cc(Cl)cc(Cl)c2)n1 [Compound 28] was tested, and the “Crabgrass, Large plant response rating” value ([1]; 31 g ai/ha) was 0, the “Crabgrass, Large plant response rating” value ([1]; 62 g ai/ha) was 0 and the “Crabgrass, Large plant response rating” value ([1]; 125 g ai/ha) was 0. For the same compound, the “Crabgrass, Large plant response rating” value ([1]; 250 g ai/ha) was 0, the “Crabgrass, Large plant response rating” value ([1]; 500 g ai/ha) was 0 and the “Morningglory plant response rating” value ([2]; 31 g ai/ha) was 0. For the same compound, the “Morningglory plant response rating” value ([2]; 62 g ai/ha) was 0, the “Morningglory plant response rating” value ([2]; 125 g ai/ha) was 0 and the “Morningglory plant response rating” value ([2]; 250 g ai/ha) was 0. The “Morningglory plant response rating” value ([2]; 500 g ai/ha) was 0, the “Foxtail, Green plant response rating” value ([3]; 31 g ai/ha) was 0 and the “Foxtail, Green plant response rating” value ([3]; 62 g ai/ha) was 0. For the same compound, the “Foxtail, Green plant response rating” value ([3]; 125 g ai/ha) was 0, the “Foxtail, Green plant response rating” value ([3]; 250 g ai/ha) was 0 and the “Foxtail, Green plant response rating” value ([3]; 500 g ai/ha) was 0. The “Goosegrass plant response rating” value ([4]; 31 g ai/ha) was 0, the “Goosegrass plant response rating” value ([4]; 62 g ai/ha) was 0 and the “Goosegrass plant response rating” value ([4]; 125 g ai/ha) was 0. For the same compound, the “Goosegrass plant response rating” value ([4]; 250 g ai/ha) was 0, the “Goosegrass plant response rating” value ([4]; 500 g ai/ha) was 0 and the “Nutsedge, Yellow plant response rating” value ([5]; 31 g ai/ha) was 0. For the same compound, the “Nutsedge, Yellow plant response rating” value ([5]; 62 g ai/ha) was 0, the “Nutsedge, Yellow plant response rating” value ([5]; 125 g ai/ha) was 0 and the “Nutsedge, Yellow plant response rating” value ([5]; 250 g ai/ha) was 0. For the same compound, the “Nutsedge, Yellow plant response rating” value ([5]; 500 g ai/ha) was 0, the “Plant response rating, Panicum, Fall” value ([6]; 31 g ai/ha) was 0 and the “Plant response rating, Panicum, Fall” value ([6]; 62 g ai/ha) was 0. The “Plant response rating, Panicum, Fall” value ([6]; 125 g ai/ha) was 0, the “Plant response rating, Panicum, Fall” value ([6]; 250 g ai/ha) was 0 and the “Plant response rating, Panicum, Fall” value ([6]; 500 g ai/ha) was 0. The “Panicum, Fall plant response rating” value ([6]; 31 g ai/ha) was 0, the “Panicum, Fall plant response rating” value ([6]; 62 g ai/ha) was 0 and the “Panicum, Fall plant response rating” value ([6]; 125 g ai/ha) was 0. For the same compound, the “Panicum, Fall plant response rating” value ([6]; 250 g ai/ha) was 0, the “Panicum, Fall plant response rating” value ([6]; 500 g ai/ha) was 0 and the “Ragweed plant response rating” value ([7]; 31 g ai/ha) was 0. The “Ragweed plant response rating” value ([7]; 62 g ai/ha) was 0, the “Ragweed plant response rating” value ([7]; 125 g ai/ha) was 30 and the “Ragweed plant response rating” value ([7]; 250 g ai/ha) was 65. For the same compound, the “Ragweed plant response rating” value ([7]; 500 g ai/ha) was 70, the “Velvetleaf plant response rating” value ([8]; 31 g ai/ha) was 0 and the “Velvetleaf plant response rating” value ([8]; 62 g ai/ha) was 0. For the same compound, the “Velvetleaf plant response rating” value ([8]; 125 g ai/ha) was 0, the “Velvetleaf plant response rating” value ([8]; 250 g ai/ha) was 40 and the “Velvetleaf plant response rating” value ([8]; 500 g ai/ha) was 100. For the same compound, the “Surinam Grass plant response rating” value ([9]; 31 g ai/ha) was 0, the “Surinam Grass plant response rating” value ([9]; 62 g ai/ha) was 0 and the “Surinam Grass plant response rating” value ([9]; 125 g ai/ha) was 0. The “Surinam Grass plant response rating” value ([9]; 250 g ai/ha) was 0, the “Surinam Grass plant response rating” value ([9]; 500 g ai/ha) was 0 and the “Plant response rating, Field Bindweed” value ([10]; 31 g ai/ha) was 0. The “Plant response rating, Field Bindweed” value ([10]; 62 g ai/ha) was 0, the “Plant response rating, Field Bindweed” value ([10]; 125 g ai/ha) was 0 and the “Plant response rating, Field Bindweed” value ([10]; 250 g ai/ha) was 10. For the same compound, the “Plant response rating, Field Bindweed” value ([10]; 500 g ai/ha) was 20, the “Field Bindweed plant response rating” value ([10]; 31 g ai/ha) was 0 and the “Field Bindweed plant response rating” value ([10]; 62 g ai/ha) was 0. For the same compound, the “Field Bindweed plant response rating” value ([10]; 125 g ai/ha) was 0, the “Field Bindweed plant response rating” value ([10]; 250 g ai/ha) was 0 and the “Field Bindweed plant response rating” value ([10]; 500 g ai/ha) was 0. For the same compound, the “Lambsquarters plant response rating” value ([11]; 31 g ai/ha) was 0, the “Lambsquarters plant response rating” value ([11]; 62 g ai/ha) was 95 and the “Lambsquarters plant response rating” value ([11]; 125 g ai/ha) was 100. The “Lambsquarters plant response rating” value ([11]; 250 g ai/ha) was 100, the “Lambsquarters plant response rating” value ([11]; 500 g ai/ha) was 100 and the “Kochia plant response rating” value (kochia (Kochia scoparia); 31 g ai/ha) was 15. For the same compound, the “Kochia plant response rating” value (kochia (Kochia scoparia); 62 g ai/ha) was 20, the “Kochia plant response rating” value (kochia (Kochia scoparia); 125 g ai/ha) was 40 and the “Kochia plant response rating” value (kochia (Kochia scoparia); 250 g ai/ha) was 40. The “Kochia plant response rating” value (kochia (Kochia scoparia); 500 g ai/ha) was 85, the “Nightshade plant response rating” value ([12]; 31 g ai/ha) was 0 and the “Nightshade plant response rating” value ([12]; 62 g ai/ha) was 0. For the same compound, the “Nightshade plant response rating” value ([12]; 125 g ai/ha) was 0, the “Nightshade plant response rating” value ([12]; 250 g ai/ha) was 0 and the “Nightshade plant response rating” value ([12]; 500 g ai/ha) was 0. For the same compound, the “Foxtail, Giant plant response rating” value ([13]; 31 g ai/ha) was 0, the “Foxtail, Giant plant response rating” value ([13]; 62 g ai/ha) was 0 and the “Foxtail, Giant plant response rating” value ([13]; 125 g ai/ha) was 20. For the same compound, the “Foxtail, Giant plant response rating” value ([13]; 250 g ai/ha) was 0, the “Foxtail, Giant plant response rating” value ([13]; 500 g ai/ha) was 0 and the “Plant response rating, Waterhemp_RES1” value ([14]; 31 g ai/ha) was 85. The “Plant response rating, Waterhemp_RES1” value ([14]; 62 g ai/ha) was 85, the “Plant response rating, Waterhemp_RES1” value ([14]; 125 g ai/ha) was 90 and the “Plant response rating, Waterhemp_RES1” value ([14]; 250 g ai/ha) was 95. For the same compound, the “Plant response rating, Waterhemp_RES1” value ([14]; 500 g ai/ha) was 90, the “Johnsongrass plant response rating” value ([15]; 31 g ai/ha) was 0 and the “Johnsongrass plant response rating” value ([15]; 62 g ai/ha) was 0. The “Johnsongrass plant response rating” value ([15]; 125 g ai/ha) was 0, the “Johnsongrass plant response rating” value ([15]; 250 g ai/ha) was 0 and the “Johnsongrass plant response rating” value ([15]; 500 g ai/ha) was 0.
